Experimental data as given in patent US8436039B2, “Inhibitors of the ATB(0,+) transporter and uses thereof” (Georgia Health Sciences University Research Institute, Inc., priority 2008, dated 2013).

Target: T1, ATB^0,+ in MCF7 cells (Homo sapiens, UniProt Q9UN76)
T1 construct: host or cells: MCF7
T1 sequence (Q9UN76 1-642): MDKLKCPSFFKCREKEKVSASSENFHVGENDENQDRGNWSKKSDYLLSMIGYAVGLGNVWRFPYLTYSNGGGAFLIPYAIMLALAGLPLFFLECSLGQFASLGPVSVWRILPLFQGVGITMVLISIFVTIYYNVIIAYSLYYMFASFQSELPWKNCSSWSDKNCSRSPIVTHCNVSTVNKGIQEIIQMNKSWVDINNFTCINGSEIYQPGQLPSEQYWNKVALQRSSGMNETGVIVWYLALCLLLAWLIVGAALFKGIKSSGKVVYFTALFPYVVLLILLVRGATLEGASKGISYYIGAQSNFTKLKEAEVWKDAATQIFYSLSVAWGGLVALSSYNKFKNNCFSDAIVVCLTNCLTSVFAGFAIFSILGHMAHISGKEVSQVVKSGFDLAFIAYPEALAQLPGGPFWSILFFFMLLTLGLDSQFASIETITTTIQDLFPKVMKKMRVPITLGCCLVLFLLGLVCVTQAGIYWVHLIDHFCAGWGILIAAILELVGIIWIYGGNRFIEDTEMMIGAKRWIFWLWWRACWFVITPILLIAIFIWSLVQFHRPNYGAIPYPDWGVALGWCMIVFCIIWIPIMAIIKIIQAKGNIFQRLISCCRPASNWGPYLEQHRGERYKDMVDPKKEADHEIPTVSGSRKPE
Test: D-serine uptake in MCF7 cells (constitutively expressed ATB^0,+)
Format: cell-based
Conditions: for IC50: D-serine 5 μM, NaCl, read-out: IC50 for inhibition of D-serine uptake
Method: Cells were seeded and grown in 24-well culture plates to confluency and used for uptake measurements. Radiolabelled glycine or D-serine was used as the substrate to determine the transport function of ATB^0,+. Uptake measurements were routinely made in an NaCl-containing buffer (25 mM Hepes/Tris buffer, pH 7.4, 140 mM NaCl, 5.4 mM KCl, 1.8 mM CaCl2, 0.8 mM MgSO4 and 5 mM glucose). Ion dependence of the transport process was evaluated by studying the uptake activity in buffers of varying compositions. NaCl in the uptake buffer was replaced iso-osmotically with NMDG (N-methyl-D-glucamine) chloride to prepare an Na^+-free buffer, and with sodium gluconate to prepare a Cl^−-free buffer. Linear uptake rates were determined by employing a 10 min incubation period, based on time course experiments. Na^+-activation kinetics was analysed by studying the uptake rates in the presence of varying concentrations of Na^+ (2.5-140 mM) in the uptake buffer with Cl^− concentration kept constant at 140 mM. This was done by replacing NaCl with appropriate concentrations of NMDG. Cl^−-activation kinetics was analysed by studying the uptake rates in the presence of varying concentrations of Cl^− (2.5-100 mM) in the uptake buffer with Na^+ concentration kept constant at 140 mM. This was done by replacing NaCl with appropriate concentrations of sodium gluconate. Uptake data for Na^+- and Cl^−-activation kinetics were analysed using the Hill equation, and values for K0.5 for Na^+ and Cl^− and for the Hill coefficient (h) were determined by linear and non-linear regression methods. A commercially available software program (Sigma Plot, version 6.0; SPSS) was used for this purpose. Substrate specificity of the uptake process was evaluated by monitoring the effects of unlabelled amino acids (5 mM) on the uptake of radiolabelled glycine or D-serine (5 μM: radiolabelled substrate, 0.05 μM; unlabelled substrate, 4.95 μM).
The kinetic nature of inhibition of D-serine uptake by α-methyl-DL-tryptophan was investigated in MCF7 cells by monitoring the uptake at increasing concentrations of D-serine (range, 50-2000 μM) in the absence and presence of 100 μM α-methyl-DL-tryptophan. The kinetic parameters were calculated by linear regression (Eadie-Hofstee plots) and the values were confirmed by non-linear regression.
We employed a similar experimental strategy to detect specifically the transport function of ATB^0,+ in the remaining seven cell lines. […] We also investigated the effect of α-methyl-DL-tryptophan on D-serine uptake in MCF7 cells.

[1] = α-methyl-DL-tryptophan 100 μM, MCF7 cells

Row | SMILES | IC50 (MCF7 cells) [µM] | IC50 of L-isomer lower compared with D-isomer (D-serine uptake, MCF7 cells) | kinetic nature of inhibition of D-serine uptake (100 μM blocker, D-serine 50-2000 μM, Eadie-Hofstee) | Kt for D-serine uptake in the presence of blocker [1] [µM] | Vmax for D-serine uptake in the presence of blocker [1]
1 | Cn1cc(C[C@H](N)C(=O)O)c2ccccc21 [1-methyl-L-tryptophan] | 86 ± 11 | at least 15 fold | – | – | –
2 | CC(N)(Cc1c[nH]c2ccccc12)C(=O)O (racemic) [α-methyl-DL-tryptophan] | – | – | competitive | 869 ± 52 | 33.3±1.4 nmol/mg of protein per 15 min
3 | Cn1cc(C[C@@H](N)C(=O)O)c2ccccc21 [1-methyl-D-tryptophan] | 1580 ± 180 | – | – | – | –
4 | Cn1cc(CC(N)C(=O)O)c2ccccc21 (racemic) [1-methyl-DL-tryptophan] | 221 ± 40 | – | – | – | –
